# Target: T1, wild-type (WT) P450 BM3 heme domain (Priestia megaterium, UniProt P14779)
# T1 sequence (P14779 1-464 limits assumed): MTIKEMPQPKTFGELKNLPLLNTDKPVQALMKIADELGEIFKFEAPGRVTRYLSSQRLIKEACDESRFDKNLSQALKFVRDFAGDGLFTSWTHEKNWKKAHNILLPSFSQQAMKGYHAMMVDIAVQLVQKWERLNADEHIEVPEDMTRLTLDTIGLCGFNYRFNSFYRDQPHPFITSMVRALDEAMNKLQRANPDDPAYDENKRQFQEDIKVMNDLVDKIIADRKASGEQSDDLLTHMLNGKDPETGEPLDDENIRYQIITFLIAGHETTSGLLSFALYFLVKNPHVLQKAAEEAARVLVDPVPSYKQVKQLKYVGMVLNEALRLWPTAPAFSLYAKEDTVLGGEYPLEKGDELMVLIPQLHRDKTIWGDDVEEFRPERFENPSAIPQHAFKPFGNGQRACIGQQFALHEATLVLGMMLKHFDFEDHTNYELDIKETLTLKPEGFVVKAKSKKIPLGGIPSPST
# Assay: optical titration, type-I difference spectra
# Assay type: binding
compound,measurement,value
"CCCCCCCCCCCC(=O)O [LA, lauric acid]",Kd,280 ± 25 µM

# From paper PMC3486690 (Journal of inorganic biochemistry, 2012)
